Measurements published in patent publication US20060040327A1, “Methods of screening proteins” (priority 2004, published 2006).

What was measured:
[1] = FRET fluorescent response of E. coli expressing DsRed2-GGBP-acGFP to glucose; type: cell-based; conditions: 22 mM glucose; excitation at 475 nm; after accounting for volume displacement
Experimental: The expression of DsRed2-GGBP-acGFP in E. coli was optimized by first inducing with IPTG and then monitoring the fluorescence produced by the DsRed2 and acGFP proteins. Initially, the protein is expressed for 2-6 hours at 37 C and then transferred to a 25 C shaker for up to 6 days. A 1 ml sample of fermentation broth is removed every 24 hrs during the 25 C expression and examined for fluorescence. […] After accounting for volume displacement, there was a 1-4% increase in DsRed2 emission at 22 mM glucose after excitation at 475 nm due to FRET.

[2] = Thermal denaturation by CD spectroscopy at 220 nm; type: physicochemical; conditions: 10 mM PBS, pH 7.4, CD 220 nm
Description: FIG. 2 depicts a plot of the CD spectra ellipticity at 220 nm wavelength of a fluorescently labeled periplasmic binding protein versus temperature. The plot for the protein without ligand is the solid line and the dotted line is the same protein in the presence of its ligand (glucose).
(§1) Combining the preceding mutations provided E149C,A213R,L238S, a protein with glucose binding affinity that is within the physiological range. […] As an illustrative example, the stability of this protein's binding activity was determined by storing solutions of the labeled protein at 25° C. and at 37° C. in a dark environment, and testing aliquots periodically for fluorescent response to glucose. The fluorescence increase for E149C,A213R,L238S upon binding glucose retained 92% of the original fluorescence increase after 3 months at 25° C., and 88% after 3 months at 37° C. Relative stability of the protein's tertiary structure was determined using CD (circular dichroism) spectroscopy of the protein in solution. Spectra were collected in 10 mM PBS, pH 7.4. Each spectrum was the average of 3 accumulations. Thermal denaturation was monitored at 220 nm using a temperature slope of 15° C. per hour over a temperature range of 15-75° C. The Tm (temperature where 50% of the protein was denatured) was 47° C. without glucose and 50° C. in the presence of glucose (see FIG. 2).

[3] = Fluorescent response and glucose binding curve of IANBD-labeled GGBP mutants; conditions: IANBD-labeled protein; for Kd: read-out: glucose affinity; for increase in fluorescence on binding glucose: fluorescent response to 100 mM glucose
Experimental: GGBP protein from the above examples, expressed from E. coli strain Sg13009 following standard protocols (Qiagen) may be further purified. For example, after induction, bacteria were lysed and purified by IMAC using Talon cobalt^2+ resin (Clontech). The purified protein solution was filtered through 100 kDa and 10 kDa cutoff filters (Millipore). […] The yield from the purification was 10 mg/l and the activity of the protein is stable for at least six months. The selected mutants were expressed, purified, and IANBD-labeled to determine their ability to produce a fluorescent response to 100 mM glucose. Mutant E149C,A213R and E149C,N256R produced a 6- and 2-fold increase in fluorescence on binding glucose, respectively. […] Mutant E149C,L238S was identified through an analogous procedure.
as §1

[4] = Stability of binding activity of labeled protein on storage, fluorescent response to glucose; type: physicochemical
Experimental: as §1

[5] = Fluorescence assay of NBD-labeled MBP mutants, maltoside; type: binding; conditions: ligand maltoside; ratio of fluorescence intensity with / without ligand
Experimental: (§2) For the mutants selected by FACS, a fluorescence assay was used to determine their maltose affinity. The mutants were labeled by fluorophore coupling of N,N′-dimethyl-N-(iodoacetyl)-N′-(7-nitrobenz-2-oxa-1,3-diazol-4-yl)ethylenediamine (IANBD amide, Molecular Probes) to a cysteine site created by mutagenesis at position 95 (Gilardi et al. (1997) Protein Eng. 10(5):479-86). Briefly, purified protein (1-2 mg/ml) was treated with dithiothreitol for 30 min and then a 10-fold molar excess of freshly prepared solution of IANBD was added. The protein and dye were gently mixed at RT for 4 hrs before the unreacted dye was removed by Nap-5 (Amersham) size-exclusion column chromatography. The efficiency of the coupling was determined by absorbance.
(§3) QF is defined as the ratio of fluorescence intensity in the presence of ligand, divided by the ratio of fluorescence intensity in the absence of ligand.

[6] = Fluorescence assay of NBD-labeled MBP mutants, maltose; type: binding; conditions: ligand Maltose; for QF: ratio of fluorescence intensity with / without ligand; for Kd: read-out: Affinity
Experimental: as §2, §3

[7] = Fluorescence assay of NBD-labeled MBP mutants, maltotetraose; type: binding; conditions: ligand maltotetraose; for QF: ratio of fluorescence intensity with / without ligand; for Kd: read-out: Affinity
Experimental: as §2, §3

[8] = Fluorescence assay of NBD-labeled MBP mutants, maltotetraitol; type: binding; conditions: ligand maltotetraitol; for QF: ratio of fluorescence intensity with / without ligand; for Kd: read-out: Affinity
Experimental: as §2, §3

Kd ([3]; binding curve) | increase in fluorescence on binding glucose [3] | Kd [6] | Kd [7] | Kd [8] | Substance | other results
 |  |  |  |  | DsRed2-GGBP-acGFP | increase in DsRed2 emission due to FRET [1]: 1-4%
12000 µM | > 6 fold |  |  |  | E149C,A213R,L238S: GGBP mutant combining the preceding mutations | Tm (temperature where 50% of the protein was denatured) ([2]; in the presence of glucose): 50 °C; Tm (temperature where 50% of the protein was denatured) ([2]; without glucose): 47 °C; fluorescence increase upon binding glucose retained, of the original fluorescence increase ([4]; labeled protein solution stored 3 months at 25° C. in the dark): 92%; fluorescence increase upon binding glucose retained, of the original fluorescence increase ([4]; labeled protein solution stored 3 months at 37° C. in the dark): 88%
1000 µM | 6 fold |  |  |  | E149C,A213R: GGBP mutant binding protein identified by the periplasmic screening assay | 
80 µM | 6 fold |  |  |  | E149C,L238S: GGBP mutant binding protein identified through an analogous procedure | 
 | 2 fold |  |  |  | E149C,N256R: GGBP mutant selected by screening, eliminated from further testing | glucose affinity ([3]; binding curve): did not reach saturation at 100 mM glucose
 |  | 15 µM | 3.6 µM | 3.7 µM | MBP(D14L,K15R,D95C)-NBD [SC-1] | QF [5]: 5.5; QF [6]: 3.4; QF [7]: 2.1; QF [8]: 2.8
 |  | 220 µM | 40 µM | 11 µM | MBP(D14V, K15V, D95C)-NBD [SC-2] | 
 |  | 1 µM | 0.2 µM | 4.5 µM | MBP(D95C)-NBD [CONTROL, reference compound] | QF [5]: 5.5; QF [6]: 5.3; QF [7]: 5.2; QF [8]: 1.2
